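Method: 48-hour compound exposure of cells in 96-well plates, five concentrations, linear interpolation of endpoints. GI50 is the concentration that inhibits growth by half. TGI: concentration producing complete growth inhibition.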
Tests used:
Assay in all cases: DTP human tumour cell line panel, 48 h
KM12 colon = test system: KM12 colon
CAKI-1 renal = test system: CAKI-1 renal
SK-MEL-2 melanoma = test system: SK-MEL-2 melanoma
OVCAR-5 ovarian = test system: OVCAR-5 ovarian
U251 CNS = test system: U251 CNS
HCT-116 colon = test system: HCT-116 colon
BT-549 breast = test system: BT-549 breast
HL-60(TB) leukemia = test system: HL-60(TB) leukemia

Structure (SMILES) | TGI (KM12 colon) [µM] | TGI (CAKI-1 renal) | TGI (SK-MEL-2 melanoma) | TGI (OVCAR-5 ovarian) | TGI (U251 CNS) | TGI (HCT-116 colon) | TGI (BT-549 breast) | GI50 (KM12 colon) [µM] | GI50 (CAKI-1 renal) | GI50 (HL-60(TB) leukemia) | TGI (HL-60(TB) leukemia) | GI50 (OVCAR-5 ovarian) | GI50 (U251 CNS) | GI50 (HCT-116 colon) | GI50 (BT-549 breast) | GI50 (SK-MEL-2 melanoma)
CC1OC(OC2C(OC3CCC4(C)C(CCC5(C)C4CC=C4C6CC(C)(C)CCC6(C(=O)O)CCC45C)C3(C)CO)OCC(O)C2O)C(O)C(O)C1O (stereo not drawn) | 21.7 | 36.6 µM | 33.3 µM | 38.4 µM | 50.3 µM | > 100 µM | 35 µM | – | – | – | – | – | – | – | – | –
OCc1ccc(N2CCc3ccccc3C2)cc1Cl | 40.1 | 14.1 µM | – | 0.069 µM | > 44.5 µM | 14.1 µM | 40.8 µM | 13.6 | 0.568 µM | 17.9 µM | 61.4 µM | < 0.0123 µM | < 0.0292 µM | < 0.01 µM | 17.7 µM | –
CC(C)(C)c1c2c(c(C(C)(C)C)c3c1OCN(Cc1ccccc1)C3)OCN(Cc1ccccc1)C2 | 57.8 | > 100 µM | 51.5 µM | 39 µM | 29.6 µM | 24.4 µM | 39.4 µM | – | – | – | – | – | – | – | – | –
CCN1Cc2nc3sc(C)c(C)c3c(=O)n2C=C1C | 14.4 | 53.5 µM | > 100 µM | > 100 µM | > 100 µM | 4.17 µM | 92.1 µM | 2.8 | 11.2 µM | 2.1 µM | 6.48 µM | 42.3 µM | 4.23 µM | 1.72 µM | 7.36 µM | 21.1 µM
Cc1ccc2c(c1)S(=O)(=O)c1ccc3ccccc3c1N2 | > 100 | > 100 µM | > 100 µM | > 100 µM | > 100 µM | > 100 µM | > 100 µM | – | – | – | > 100 µM | – | – | – | – | –
O=C(c1ccco1)c1c(C(F)(F)F)n([O-])c2ccc(Cl)cc2[n+]1=O | 4.13 | 4.21 µM | 9.78 µM | 2.86 µM | 1.66 µM | 2.84 µM | 0.73 µM | 1.93 | 0.961 µM | 0.346 µM | 6.33 µM | 1.47 µM | 0.487 µM | 0.0595 µM | 0.109 µM | 1.76 µM
O=C(Nc1ccc(/C=C/c2ccc(NC(=O)c3cc(S(=O)(=O)O)c4cccnc4c3O)cc2S(=O)(=O)O)c(S(=O)(=O)O)c1)c1cc(S(=O)(=O)O)c2cccnc2c1O | > 67.7 | > 75.2 µM | > 69.7 µM | > 56.9 µM | > 22.4 µM | > 43.3 µM | > 79.8 µM | 42.8 | 34.3 µM | 0.337 µM | 3.2 µM | > 20.2 µM | 3.32 µM | 4.54 µM | 21.8 µM | > 53.8 µM
COc1ccc(/C=C2\C=C(c3ccccc3)N(CCc3ccccc3)C2=O)cc1OC | > 100 | > 100 µM | > 100 µM | 73.1 µM | 9.31 µM | 11.6 µM | 49.9 µM | 22.2 | 7.53 µM | 11.7 µM | 68.6 µM | 6.37 µM | 3.2 µM | 3.09 µM | 12.4 µM | 18.5 µM
COc1cc(C(=O)Nc2cc(OC)c3ccn(C)c3c2)cc2c1C[C@]1(C)CC[C@@H](O)C(C)(C)[C@H]1O2 | > 100 | – | 4.48 µM | > 100 µM | 15.3 µM | 17 µM | 30.3 µM | 2.08 | – | 0.074 µM | 3.43 µM | 4.14 µM | 0.0978 µM | 0.733 µM | 0.558 µM | 0.323 µM
CS(=O)(=O)CC(=O)c1ccccc1 | > 100 | – | > 100 µM | > 100 µM | > 100 µM | > 100 µM | > 100 µM | – | – | – | > 100 µM | – | – | – | – | –
COc1cc([N+](=O)[O-])c(OC)cc1-c1nc2sc(Cl)cn2c1/C=N/NC1=NCCN1 | 2.49 | 51.7 µM | > 100 µM | 2.3 µM | 3.02 µM | 0.616 µM | 5.95 µM | 0.833 | 12.9 µM | – | – | 0.878 µM | 1.65 µM | 0.249 µM | 2.69 µM | 22.9 µM
NCC1OC(OC2C(CO)OC(OC3C(O)C(N)CC(N)C3OC3OC(CO)C(O)CC3N)C2O)C(N)C(O)C1OC1OC(CO)C(O)C(O)C1O (stereo not drawn) | – | > 50 µg/mL | > 50 µg/mL | > 50 µg/mL | > 50 µg/mL | > 50 µg/mL | > 50 µg/mL | – | > 50 µg/mL | > 50 µg/mL | > 50 µg/mL | > 50 µg/mL | > 50 µg/mL | > 50 µg/mL | > 50 µg/mL | > 50 µg/mL
Clc1cc(Cl)cc(N2N=C(c3cccc(Nc4ccncc4)c3)CC2c2ccc3c(c2)OCO3)c1 (stereo not drawn) | 3.35 | 2.9 µM | – | 3.51 µM | – | 3.42 µM | 3.3 µM | 1.78 | 1.54 µM | – | – | 1.83 µM | – | 1.7 µM | 1.7 µM | –
COc1cc(/C=C/C(=O)N2CCN(C(=O)c3cc(OC)c(OC)c(OC)c3)CC2)ccc1OCCCOc1cc2c(cc1OC)C(=O)N1CCC[C@H]1C=N2 | 0.699 | 6.08 µM | 0.703 µM | – | 6.06 µM | – | 0.434 µM | 0.25 | 1.54 µM | 0.214 µM | – | – | 0.227 µM | – | 0.154 µM | 0.26 µM
CC(=O)Oc1ccc(/C(=C(\C)c2ccc(Cl)cc2)c2ccc(OCCN3CCCCC3)cc2)cc1 | 3.97 | – | 3.56 µM | 8.35 µM | 3.27 µM | 2.72 µM | 3.58 µM | 1.77 | – | 2.09 µM | 4.35 µM | 2.72 µM | 1.66 µM | 1.34 µM | 1.83 µM | 1.85 µM
COc1ccc(C2C=C(c3ccc4c(c3)OCO4)Oc3c2c(=O)oc2ccccc32)cc1OC (stereo not drawn) | > 100 | > 100 µM | – | > 100 µM | > 100 µM | > 100 µM | > 100 µM | – | – | – | 0.6 µM | – | – | – | – | –
Cn1c(/C=C/[N+](=O)[O-])cc2ccccc21 | 3.15 | – | 68.3 µM | 56.6 µM | 3.75 µM | 2.45 µM | 3.77 µM | 1.69 | – | 13.1 µM | 57.5 µM | 21.2 µM | 1.73 µM | 1.04 µM | 1.88 µM | 15.3 µM
O=S(=O)(/N=c1/scc(-c2ccccc2)n1-c1ccccc1)c1ccc(N2N=C3c4ccccc4CC3C2c2cccs2)cc1 (stereo not drawn) | > 100 | > 100 µM | > 100 µM | > 100 µM | > 100 µM | – | > 100 µM | 32.1 | 73 µM | – | – | 88.9 µM | 31.2 µM | – | 47.5 µM | > 100 µM
Cn1c(NCC(O)CN2CCCC2)cc(=O)n(C)c1=O (stereo not drawn) | > 100 | > 100 µM | > 100 µM | > 100 µM | > 100 µM | > 100 µM | > 100 µM | > 100 | > 100 µM | – | – | > 100 µM | > 100 µM | > 100 µM | > 100 µM | > 100 µM
O=C(Nc1ccccc1)c1cc(S(=O)(=O)Nc2nc3ccccc3o2)c(SCc2ccccc2)cc1Cl | 32.6 | 35.5 µM | 57.3 µM | 43.3 µM | 35 µM | 66.1 µM | 40.6 µM | 16.7 | 19.3 µM | – | – | 22.5 µM | 17.8 µM | 25.1 µM | 19 µM | 23.6 µM
c1ccc2cc(C[n+]3ccn(CCCCCCCCCCn4cc[n+](Cc5ccc6ccccc6c5)c4)c3)ccc2c1 | 2.73 | – | 5.2 µM | 9.48 µM | – | 15.1 µM | – | 0.727 | – | 1.25 µM | 2.97 µM | 1.87 µM | – | 1.55 µM | – | 1.72 µM
O=C(/C(=C\c1ccc(Cl)cc1)c1ccccc1)c1ccccc1 | 74.3 | – | 75 µM | > 100 µM | > 100 µM | > 100 µM | – | – | – | – | 36.3 µM | – | – | – | – | –
COc1cc([C@@H]2C[C@H]2c2cc(SC)n[nH]2)cc(OC)c1OC | 32.8 | 37.9 µM | 67.2 µM | 90.1 µM | > 100 µM | 85.7 µM | 42 µM | 15.2 | 15.6 µM | – | – | 37.9 µM | 79.3 µM | 23.6 µM | 16.2 µM | 25.6 µM
COc1ccc(-n2ccnc2-c2cc(OC)c(OC)c(OC)c2)cc1 | > 100 | 7.69 µM | > 100 µM | > 100 µM | > 100 µM | > 100 µM | > 100 µM | 4.59 | 1.28 µM | – | – | 10.1 µM | 3.98 µM | 3.9 µM | 5.03 µM | 7.27 µM
CC(=O)c1cc(C(=O)c2ccc3c(c2)Sc2ccccc2N3)c2cc(C)ccn12 | > 100 | > 100 µM | > 100 µM | – | > 100 µM | > 100 µM | > 100 µM | 0.0425 | 0.053 µM | – | – | – | 0.138 µM | 0.0414 µM | 0.251 µM | 81.4 µM
Cc1cc(C(C)(C)C)cc(CNC2CCCCC2)c1O | 46.3 | 35.7 µM | 34 µM | 31.9 µM | 29.9 µM | 28.8 µM | 30 µM | – | – | – | – | – | – | – | – | –
